What all share (type): cell-based
One assay has as its target T1, GLP-1R (Homo sapiens, UniProt P43220).
T1 construct: expressed in transfected cells; host or cells: CHO-K1
The experiment in a line: GLP-1 activity test (cAMP, chemiluminescence). How it is done:
(§1) Upon stimulation by a specific agonist, GLP-1R activates the intracellular adenylate cyclase signaling pathway, resulting in an increase in cAMP levels and ultimately leading to insulin production and secretion. A cell line stably transfected with GLP-1R was stimulated with test compounds, thereby rapidly increasing intracellular cAMP levels. The relative luminescence units (RLU) of cells stimulated at various concentrations were measured by a chemiluminescence method, and the EC50 value of the agonist was calculated accordingly. This activity test method is currently a commonly used method for evaluating GLP-1 receptor agonist activity both domestically and internationally. A CHO-K1 cell line stably expressing GLP-1R was used. The stable cells were stimulated with agonists at different concentrations, and the relative luminescence units after stimulation at each concentration were measured to calculate the EC50 value of the agonist.

Another assay deals with T2, GIPR (Homo sapiens, UniProt P48546).
T2 construct: expressed in transfected cells; host or cells: CHO-K1
T2 sequence (P48546 22-466): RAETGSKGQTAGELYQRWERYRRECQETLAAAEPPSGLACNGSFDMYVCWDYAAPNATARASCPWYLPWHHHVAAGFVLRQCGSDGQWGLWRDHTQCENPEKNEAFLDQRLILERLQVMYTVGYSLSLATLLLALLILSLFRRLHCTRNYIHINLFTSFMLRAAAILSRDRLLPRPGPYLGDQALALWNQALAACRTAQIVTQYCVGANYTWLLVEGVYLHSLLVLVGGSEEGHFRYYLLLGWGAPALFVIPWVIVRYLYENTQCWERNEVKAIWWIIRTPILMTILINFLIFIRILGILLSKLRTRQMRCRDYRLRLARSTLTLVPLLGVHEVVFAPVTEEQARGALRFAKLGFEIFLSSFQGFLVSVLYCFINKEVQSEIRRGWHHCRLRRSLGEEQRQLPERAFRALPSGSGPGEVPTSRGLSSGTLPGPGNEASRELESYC
As to the kind of experiment: GIP activity test (cAMP, chemiluminescence). How it is done: as §1, with “agonist, GIPR” for “agonist, GLP-1R”, “with GIPR” for “with GLP-1R”, “activity assay” for “activity test”, “evaluating GIP” for “evaluating GLP-1”, “expressing GIPR” for “expressing GLP-1R”

The target of the next assay is T3, GCG-R (Homo sapiens, UniProt P47871).
T3 construct: expressed in transfected cells; host or cells: CHO-K1
T3 sequence (P47871 26-477, species assumed): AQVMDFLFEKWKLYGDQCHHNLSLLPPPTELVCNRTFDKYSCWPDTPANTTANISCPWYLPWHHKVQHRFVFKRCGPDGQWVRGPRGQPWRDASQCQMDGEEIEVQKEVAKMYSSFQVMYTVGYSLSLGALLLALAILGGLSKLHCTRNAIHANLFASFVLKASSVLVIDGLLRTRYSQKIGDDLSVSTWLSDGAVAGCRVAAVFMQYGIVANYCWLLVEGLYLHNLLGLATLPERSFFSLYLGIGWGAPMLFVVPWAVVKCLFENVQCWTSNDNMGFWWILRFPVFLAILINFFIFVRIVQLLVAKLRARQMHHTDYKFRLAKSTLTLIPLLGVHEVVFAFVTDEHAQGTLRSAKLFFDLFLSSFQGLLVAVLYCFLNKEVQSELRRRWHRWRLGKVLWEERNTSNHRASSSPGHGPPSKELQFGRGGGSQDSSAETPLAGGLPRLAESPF
As to the kind of experiment: GCG activity test (cAMP, chemiluminescence). How it is done: Upon stimulation by a specific agonist, GCG-R activates the intracellular adenylate cyclase signaling pathway, resulting in an increase in cAMP levels and ultimately leading to insulin production and secretion. A cell line stably transfected with GCG-R was stimulated with test compounds, thereby rapidly increasing intracellular cAMP levels. The relative luminescence units (RLU) of cells stimulated at various concentrations were measured by a chemiluminescence method, and the EC50 value of the agonist was calculated accordingly. This activity assay method is currently a commonly used method for evaluating GCG receptor agonist activity both domestically and internationally.
A CHO-K1 cell line stably expressing GCG-R was used. The stable cells were stimulated with agonists at different concentrations, and the relative luminescence units after stimulation at each concentration were measured to calculate the EC50 value of the agonist.

The structures appear in SMILES notation.

T1 sequence (P43220 24-463, species assumed): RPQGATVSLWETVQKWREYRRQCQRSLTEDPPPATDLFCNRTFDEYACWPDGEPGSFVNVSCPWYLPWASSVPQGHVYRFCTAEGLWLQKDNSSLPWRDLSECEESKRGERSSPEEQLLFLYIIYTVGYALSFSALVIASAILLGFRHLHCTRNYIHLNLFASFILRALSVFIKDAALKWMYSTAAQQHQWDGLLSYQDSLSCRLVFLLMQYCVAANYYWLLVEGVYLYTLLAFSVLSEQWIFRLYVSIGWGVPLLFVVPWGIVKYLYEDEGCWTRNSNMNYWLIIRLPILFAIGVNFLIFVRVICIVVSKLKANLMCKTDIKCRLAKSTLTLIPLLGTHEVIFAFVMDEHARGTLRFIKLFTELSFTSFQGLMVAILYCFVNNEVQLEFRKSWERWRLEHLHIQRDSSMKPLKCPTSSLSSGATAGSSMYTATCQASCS

As usually defined, the EC50 is the concentration giving half of the maximal effect. Higher therefore signals weaker potency. Turning to `CC[C@H](C)[C@H](NC(=O)[C@H](Cc1ccccc1)NC(=O)[C@H](C)NC(=O)C(C)(C)NC(=O)[C@H](CCC(N)=O)NC(=O)[C@H](C)NC(=O)[C@H](CCCCNC(=O)COCCOCCOCCOCCOCCNC(=O)CC[C@H](NC(=O)CCCCCCCCCCCCCCCCCCC(=O)O)C(=O)O)NC(=O)[C@H](CCCCN)NC(=O)[C@H](CC(=O)O)NC(=O)[C@H](CC(C)C)NC(=O)C(C)(CC(C)C)NC(=O)[C@@H](NC(=O)[C@H](CO)NC(=O)[C@H](Cc1ccc(O)cc1)NC(=O)[C@H](CC(=O)O)NC(=O)[C@H](CO)NC(=O)[C@@H](NC(=O)C(C)(Cc1ccccc1)NC(=O)[C@@H](NC(=O)CNC(=O)[C@H](CCC(N)=O)NC(=O)C(C)(C)NC(=O)[C@@H](N)Cc1ccc(O)cc1)[C@@H](C)O)[C@@H](C)O)[C@@H](C)CC)C(=O)N[C@@H](CCC(=O)O)C(=O)N[C@@H](Cc1ccc(O)cc1)C(=O)N[C@@H](CC(C)C)C(=O)N[C@@H](CC(C)C)C(=O)N[C@@H](CCC(=O)O)C(=O)NCCCCC(=O)N1CCC[C@H]1C(=O)N[C@@H](CO)C(=O)N[C@@H](CO)C(=O)NCC(=O)N[C@@H](C)C(=O)N1CCC[C@H]1C(=O)N1CCC[C@H]1C(=O)N1CCC[C@H]1C(=O)N[C@@H](CO)C(N)=O` (stereo partly drawn) [Compound 10], the EC50 on GLP-1R came out at 0.0494 nM; on GIPR, 0.0256 nM; on GCG-R it was 0.299 nM.

Consider `CC[C@H](C)[C@H](NC(=O)[C@H](Cc1ccccc1)NC(=O)[C@H](C)NC(=O)C(C)(C)NC(=O)[C@H](CCC(N)=O)NC(=O)[C@H](C)NC(=O)[C@H](CCCCNC(=O)COCCOCCNC(=O)CC[C@H](NC(=O)CCCCCCCCCCCCCCCCCCC(=O)O)C(=O)O)NC(=O)[C@H](CCCCN)NC(=O)[C@H](CC(=O)O)NC(=O)[C@H](CC(C)C)NC(=O)C(C)(CC(C)C)NC(=O)[C@@H](NC(=O)[C@H](CO)NC(=O)[C@H](Cc1ccc(O)cc1)NC(=O)[C@H](CC(=O)O)NC(=O)[C@H](CO)NC(=O)[C@@H](NC(=O)C(C)(Cc1ccccc1)NC(=O)[C@@H](NC(=O)CNC(=O)[C@H](CCC(N)=O)NC(=O)C(C)(C)NC(=O)[C@@H](N)Cc1ccc(O)cc1)[C@@H](C)O)[C@@H](C)O)[C@@H](C)CC)C(=O)N[C@@H](CCC(=O)O)C(=O)N[C@@H](Cc1ccc(O)cc1)C(=O)N[C@@H](CC(C)C)C(=O)N[C@@H](CC(C)C)C(=O)N[C@@H](CCC(=O)O)C(=O)NCCCCC(=O)N1CCC[C@H]1C(=O)N[C@@H](CO)C(=O)N[C@@H](CO)C(=O)NCC(=O)N[C@@H](C)C(=O)N1CCC[C@H]1C(=O)N1CCC[C@H]1C(=O)N1CCC[C@H]1C(=O)N[C@@H](CO)C(N)=O` (stereo partly drawn) [Compound 1], for which the results for the EC50 at GLP-1R, at GIPR and on GCG-R were 0.045 nM, 0.0244 nM and 0.271 nM, respectively.

For the molecule `CC[C@H](C)[C@H](NC(=O)[C@H](Cc1ccccc1)NC(=O)[C@H](C)NC(=O)C(C)(C)NC(=O)[C@H](CCC(N)=O)NC(=O)[C@H](C)NC(=O)[C@H](CCCCNC(=O)COCCOCCNC(=O)COCCOCCNC(=O)CC[C@H](NC(=O)CCCCCCCCCCCCCCCCCCC(=O)O)C(=O)O)NC(=O)[C@H](CCCCN)NC(=O)[C@H](CC(=O)O)NC(=O)[C@H](CC(C)C)NC(=O)C(C)(CC(C)C)NC(=O)[C@@H](NC(=O)[C@H](CO)NC(=O)[C@H](Cc1ccc(O)cc1)NC(=O)[C@H](CC(=O)O)NC(=O)[C@H](CO)NC(=O)[C@@H](NC(=O)C(C)(Cc1ccccc1)NC(=O)[C@@H](NC(=O)CNC(=O)[C@H](CCC(N)=O)NC(=O)C(C)(C)NC(=O)[C@@H](N)Cc1ccc(O)cc1)[C@@H](C)O)[C@@H](C)O)[C@@H](C)CC)C(=O)N[C@@H](CCC(=O)O)C(=O)N[C@@H](Cc1ccc(O)cc1)C(=O)N[C@@H](CC(C)C)C(=O)N[C@@H](CC(C)C)C(=O)N[C@@H](CCC(=O)O)C(=O)NCCCCC(=O)N1CCC[C@H]1C(=O)N[C@@H](CO)C(=O)N[C@@H](CO)C(=O)NCC(=O)N[C@@H](C)C(=O)N1CCC[C@H]1C(=O)N1CCC[C@H]1C(=O)N1CCC[C@H]1C(=O)N[C@@H](CO)C(N)=O` (stereo partly drawn) [Compound 9], the figures for the EC50 on GLP-1R, at GIPR and on GCG-R were 0.0519 nM, 0.0268 nM and 0.307 nM, respectively.

With `CC[C@H](C)[C@H](NC(=O)[C@H](Cc1ccccc1)NC(=O)[C@H](C)NC(=O)C(C)(C)NC(=O)[C@H](CCC(N)=O)NC(=O)[C@H](C)NC(=O)[C@H](CCCCNC(=O)COCCOCCNC(=O)CCCCC[C@H](NC(=O)CCCCCCCCCCCCCCCCCCC(=O)O)C(=O)O)NC(=O)[C@H](CCCCN)NC(=O)[C@H](CC(=O)O)NC(=O)[C@H](CC(C)C)NC(=O)C(C)(CC(C)C)NC(=O)[C@@H](NC(=O)[C@H](CO)NC(=O)[C@H](Cc1ccc(O)cc1)NC(=O)[C@H](CC(=O)O)NC(=O)[C@H](CO)NC(=O)[C@@H](NC(=O)C(C)(Cc1ccccc1)NC(=O)[C@@H](NC(=O)CNC(=O)[C@H](CCC(N)=O)NC(=O)C(C)(C)NC(=O)[C@@H](N)Cc1ccc(O)cc1)[C@@H](C)O)[C@@H](C)O)[C@@H](C)CC)C(=O)N[C@@H](CCC(=O)O)C(=O)N[C@@H](Cc1ccc(O)cc1)C(=O)N[C@@H](CC(C)C)C(=O)N[C@@H](CC(C)C)C(=O)N[C@@H](CCC(=O)O)C(=O)NCCCCC(=O)N1CCC[C@H]1C(=O)N[C@@H](CO)C(=O)N[C@@H](CO)C(=O)NCC(=O)N[C@@H](C)C(=O)N1CCC[C@H]1C(=O)N1CCC[C@H]1C(=O)N1CCC[C@H]1C(=O)N[C@@H](CO)C(N)=O` (stereo partly drawn) [Compound 4], the EC50 on GLP-1R was determined as 0.0554 nM; at GIPR, 0.031 nM; on GCG-R, 0.286 nM.

Consider `CC[C@H](C)[C@H](NC(=O)[C@H](Cc1ccccc1)NC(=O)[C@H](C)NC(=O)C(C)(C)NC(=O)[C@H](CCC(N)=O)NC(=O)[C@H](C)NC(=O)[C@H](CCCCNC(=O)COCCOCCNC(=O)CCCC[C@H](NC(=O)CCCCCCCCCCCCCCCCCCC(=O)O)C(=O)O)NC(=O)[C@H](CCCCN)NC(=O)[C@H](CC(=O)O)NC(=O)[C@H](CC(C)C)NC(=O)C(C)(CC(C)C)NC(=O)[C@@H](NC(=O)[C@H](CO)NC(=O)[C@H](Cc1ccc(O)cc1)NC(=O)[C@H](CC(=O)O)NC(=O)[C@H](CO)NC(=O)[C@@H](NC(=O)C(C)(Cc1ccccc1F)NC(=O)[C@@H](NC(=O)CNC(=O)[C@H](CCC(N)=O)NC(=O)C(C)(C)NC(=O)[C@@H](N)Cc1ccc(O)cc1)[C@@H](C)O)[C@@H](C)O)[C@@H](C)CC)C(=O)N[C@@H](CCC(=O)O)C(=O)N[C@@H](Cc1ccc(O)cc1)C(=O)N[C@@H](CC(C)C)C(=O)N[C@@H](CC(C)C)C(=O)N[C@@H](CCC(=O)O)C(=O)NCCCCC(=O)N1CCC[C@H]1C(=O)N[C@@H](CO)C(=O)N[C@@H](CO)C(=O)NCC(=O)N[C@@H](C)C(=O)N1CCC[C@H]1C(=O)N1CCC[C@H]1C(=O)N1CCC[C@H]1C(=O)N[C@@H](CO)C(N)=O` (stereo partly drawn) [Compound 7], for which the EC50 on GLP-1R was 0.0455 nM; at GIPR it was 0.0246 nM; at GCG-R, 0.163 nM.

As to `CC[C@H](C)[C@H](NC(=O)[C@H](Cc1ccccc1)NC(=O)[C@H](C)NC(=O)C(C)(C)NC(=O)[C@H](CCC(N)=O)NC(=O)[C@H](C)NC(=O)[C@H](CCCCNC(=O)COCCOCCOCCOCCOCCNC(=O)CC[C@H](NC(=O)CCCCCCCCCCCCCCCCCCC(=O)O)C(=O)O)NC(=O)[C@H](CCCCN)NC(=O)[C@H](CC(=O)O)NC(=O)[C@H](CC(C)C)NC(=O)C(C)(CC(C)C)NC(=O)[C@@H](NC(=O)[C@H](CO)NC(=O)[C@H](Cc1ccc(O)cc1)NC(=O)[C@H](CC(=O)O)NC(=O)[C@H](CO)NC(=O)[C@@H](NC(=O)C(C)(Cc1ccccc1F)NC(=O)[C@@H](NC(=O)CNC(=O)[C@H](CCC(N)=O)NC(=O)C(C)(C)NC(=O)[C@@H](N)Cc1ccc(O)cc1)[C@@H](C)O)[C@@H](C)O)[C@@H](C)CC)C(=O)N[C@@H](CCC(=O)O)C(=O)N[C@@H](Cc1ccc(O)cc1)C(=O)N[C@@H](CC(C)C)C(=O)N[C@@H](CC(C)C)C(=O)N[C@@H](CCC(=O)O)C(=O)NCCCCC(=O)N1CCC[C@H]1C(=O)N[C@@H](CO)C(=O)N[C@@H](CO)C(=O)NCC(=O)N[C@@H](C)C(=O)N1CCC[C@H]1C(=O)N1CCC[C@H]1C(=O)N1CCC[C@H]1C(=O)N[C@@H](CO)C(N)=O` (stereo partly drawn) [Compound 12], the values for the concentration for a half-maximal effect (EC50) on GLP-1R, at GIPR and at GCG-R were 0.0469 nM, 0.0243 nM and 0.165 nM, respectively.
